For data set [1], the system named is HBV DNA. Particulars: cited from earlier work.
A further data set concerns HBsAg. As to conditions: cited from earlier work.
For data set [2] the following is noted: read-out: CC50 cytotoxicity; cited from earlier work.
In data set [3] the test system is HBV surface antigen (HBsAg). Put plainly: Cryopreserved PHH assay, ELISA of hepatitis B surface antigen in culture supernatant. In kind it is cell-based, type D HBV in human primary hepatocytes (PHH). Particulars: Hepatitis B virus, 240 h, read-out: HBsAg EC50. The procedure: (§1) The inhibitory effect of the compounds on HBV was evaluated by real-time quantitative qPCR assay (real time-qPCR) to detect the HBV DNA content in human primary hepatocytes (PHH) culture supernatant, and ELISA to detect the hepatitis B surface antigen and e antigen content, the EC50 value of the compounds was used as an indicator; meanwhile, the cell viability was detected by CellTiter-Glo to evaluate the toxicity of the compounds to cells.
(§2) 3.1. On day 0, PHH (1.32×10^5 cells/well) was seeded into a 48-well plate and incubated overnight at 37° C., 5% CO2.
(§3) 3.2. On the first day, PHH was infected with type D HBV (concentrated from HepDE19 cell culture supernatant).
(§4) 3.3 On the second day, the test compound was diluted to 7 concentrations with 5-fold serial dilution. Reference compound Peg-IFN-α 2a, 7 concentrations with 3-fold serial dilution. Compounds with different concentrations were added to the culture wells, and the wells were double-duplicated wells. The final concentration of DMSO in the culture medium was 2%.
(§5) 3.4 On the 4th, 6th, and 8th day, the culture medium was replaced by a fresh culture medium containing the compound.
(§6) 3.5 After collecting the culture supernatant from the culture well on the 10th day, the cell viability was tested with CellTiter-Glo. A portion of the culture supernatant was collected for ELISA determination to detect the content of hepatitis B virus surface antigen and e antigen; a portion of the sample was collected for extract DNA using a high-throughput DNA purification kit, referring to the product instructions for the specific steps.
(§7) 3.7 ELISA determination of hepatitis B virus surface antigen and e antigen
(§8) The specific steps can be referred to the product manual, the steps are briefly described as follows: 50 μL of sample and standard was added to the reaction plate respectively, 50 μL of enzyme conjugate was added to each well, the mixture was shaken and mixed well, then kept in a warm bath at 37° C. for 60 minutes, the plate was washed with washing solution for 5 times, 50 μL of the luminescent substrate was added to each well, the mixture was mixed well, and the reaction was carried out in the dark at room temperature for 10 minutes, and finally the chemiluminescence intensity was detected with the instrument.
(§9) Calculation of the inhibition percentage of HBV DNA, HBV surface antigen and e antigen. % Inh.=(1−value of the sample/value of DMSO control)×100.
(In general: An ELISA detects its analyte on a solid surface through an enzyme-linked reagent.)

A short description of data set [4]: Cryopreserved PHH assay, cell viability by CellTiter-Glo. In kind it is cell-based. Particulars: human, cryopreserved primary human hepatocytes (PHH), day 10, CellTiter-Glo. As to the method:
as §1, §2, §4, §5, §6
Calculation of the percentage of cell viability: % viability=the luminescence value of the sample/the luminescence value of the DMSO control×100.

For data set [5], the system named is HBV DNA. As to the kind of experiment: Cryopreserved PHH assay, real-time qPCR of HBV DNA in culture supernatant. Particulars: Hepatitis B virus, 240 h; PHH infected with type D HBV, supernatant day 10, qPCR. In kind it is cell-based, type D HBV in human primary hepatocytes (PHH). The procedure:
as §1, §2, §3, §4, §5, §6
3.6 Quantitative PCR to detect the content of HBV DNA
The qPCR reaction mixture, sample and standard were added to the 384 well reaction plate. PCR reactions: 95° C., 10 min; 95° C., 15 sec, 60° C., 1 min, 40 cycles.
as §9

The subject of a further data set is HBV e antigen (HBeAg). Put plainly: Cryopreserved PHH assay, ELISA of hepatitis B e antigen in culture supernatant. In kind it is cell-based, type D HBV in human primary hepatocytes (PHH). As to conditions: Hepatitis B virus, 240 h, read-out: HBeAg EC50. The procedure: as §1, §2, §3, §4, §5, §6, §7, §8, §9

Each structure is given as a SMILES string. pEC50: −log10 of the molar value. Like-named read-outs stand apart in the source and are kept apart here. Some results are limits rather than exact numbers.

By pEC50 is commonly meant −log10 of the EC50, conventionally taken in molar units. What is called CC50 is the concentration that lowers cell viability or growth by half. With `Clc1cc2nc(N3CCN(c4ccccn4)CC3)[nH]c2cc1Cl` [BM601], the figures for the pEC50 in the data set on HBV DNA [1] and with HBsAg were 6.22 and 5.82, respectively. The CC50 in data set [2] was 24500 nM.

For `CC1(C)N=C(c2nc(-c3ccc(C(=O)O)cc3)cs2)Nc2cc(Cl)ccc21` [Compound I-25, 4-(2-(7-chloro-4,4-dimethyl-1,4-dihydroquinazolin-2-yl)thiazol-4-yl)benzoic acid], the negative logarithm of the EC50 (pEC50) in data set [3] is 6.36; in the data set with HBV DNA [5] it was 7.01; in the data set on HBV e antigen (HBeAg), 7.20. Further, the CC50 at 8 days in data set [4] is greater than 50000 nM.

Turning to `CCC1(CC)N=C(c2nc(-c3ccc(C(=O)O)cc3)cs2)Nc2ccccc21` [Compound I-69, 4-(2-(4,4-diethyl-1,4-dihydroquinazolin-2-yl)thiazol-4-yl)benzoic acid], the pEC50 in data set [3] was 7.25; with HBV DNA [5] it was 7.77; with HBV e antigen (HBeAg), 7.95. For the same compound, the CC50 at 8 days in data set [4] was greater than 50000 nM.

As for `CC1(C)N=C(c2nc(-c3ccc(C(=O)O)cc3)cs2)Nc2c(OC(F)(F)F)cccc21` [Compound I-65, 4-(2-(4,4-dimethyl-8-trifluoromethoxyl-1,4-dihydroquinazolin-2-yl)thiazol-4-yl)benzoic acid], the pEC50 is 7.40 in data set [3], 8.52 with HBV DNA [5] and 8.48 in the data set with HBV e antigen (HBeAg). In addition, the CC50 at 8 days in data set [4] is greater than 50000 nM.

On to `CC1(C)N=C(c2nc(-c3ccc(C(N)=O)cc3)cs2)Nc2ccccc21` [Compound I-71, 4-(2-(4,4-dimethyl-1,4-dihydroquinazolin-2-yl)thiazol-4-yl)benzamide], for which the pEC50 in data set [3] was 7.03; with HBV DNA [5], 7.50; with HBV e antigen (HBeAg), 7.83. The compound further had a CC50 at 8 days in data set [4] greater than 50000 nM.

Consider `O=C(O)c1ccc(-c2csc(C3=NC4(COC4)c4cccc(Cl)c4N3)n2)cc1` [Compound I-11, 4-(2-(8′-chloro-1′H-spiro[oxetanyl-3,4′-quinazolin]-2′-yl)thiazol-4-yl)benzoic acid], for which the pEC50 in data set [3] was 6.79; with HBV DNA [5], 7.68; with HBV e antigen (HBeAg), 7.77. This compound also gave a CC50 at 8 days in data set [4] greater than 50000 nM.

`CC1(C)N=C(c2nc(-c3ccc(C(=O)O)cc3)cs2)Nc2ccc(Cl)cc21` [Compound I-27, 4-(2-(6-chloro-4,4-dimethyl-1,4-dihydroquinazolin-2-yl)thiazol-4-yl)benzoic acid]: the pEC50 in data set [3] is less than 4.30; in the data set on HBV DNA [5], 7.78; in the data set on HBV e antigen (HBeAg), 7.68. In data set [4], the CC50 at 8 days is greater than 50000 nM.

For the compound `CC1N=C(c2nc(-c3ccc(C(=O)O)cc3)cs2)Nc2c(Cl)cccc21` (centres unmarked) [Compound I-2, 4-(2-(8-chloro-4-methyl-1,4-dihydroquinazolin-2-yl)thiazol-4-yl)benzoic acid], the results for the pEC50 (in data set [3]; in the data set on HBV DNA [5]; in the data set on HBV e antigen (HBeAg)) were 7.87, 8.19 and 8.27, respectively. Moreover, in data set [4], the CC50 at 8 days was greater than 50000 nM.

Consider `CC1(C)N=C(c2nc(-c3ccc(C(=O)NS(C)(=O)=O)cc3)cs2)Nc2ccccc21` [Compound I-66], for which the pEC50 in data set [3] is 6.43; with HBV DNA [5] it was 7.52; with HBV e antigen (HBeAg), 7.50. The compound also yielded a CC50 at 8 days in data set [4] greater than 50000 nM.

As for `CC1(C)N=C(c2ccc(-c3ccc(C(=O)O)cc3)cn2)Nc2c(Cl)cccc21` [Compound I-48, 4-(6-(8-chloro-4,4-dimethyl-1,4-dihydroquinazolin-2-yl)pyridin-3-yl)benzoic acid], the pEC50 in data set [3] was less than 4.30; with HBV DNA [5], 5.40; with HBV e antigen (HBeAg), 6.37. Besides, the CC50 at 8 days in data set [4] was greater than 50000 nM.

With `COc1cc(-c2csc(C3=NC(C)(C)c4ccccc4N3)n2)ccc1C(=O)O` [Compound I-40, 4-(2-(4,4-dimethyl-1,4-dihydroquinazolin-2-yl)thiazol-4-yl)-2-flurobenzoic acid], the results for the pEC50 (in data set [3]; in the data set with HBV DNA [5]; in the data set on HBV e antigen (HBeAg)) were 6.52, 7.51 and 7.47, respectively. This compound gave a CC50 at 8 days in data set [4] greater than 50000 nM.

Turning to `CC1(C)N=C(c2nc(-c3ccc(C(=O)O)nc3)cs2)Nc2ccccc21` [Compound I-35, 5-(2-(4,4-dimethyl-1,4-dihydroquinazolin-2-yl)thiazol-4-yl)pyridin-2-carboxylic acid], the pEC50 is 5.99 in data set [3], 5.95 with HBV DNA [5] and 6.47 in the data set with HBV e antigen (HBeAg). Moreover, the CC50 at 8 days in data set [4] was greater than 50000 nM.

Consider `CC1(C)N=C(c2nc(-c3ccc(C(=O)O)cc3)cs2)Nc2ccccc21` [Compound I-20, 4-(2-(4,4-dimethyl-1,4-dihydroquinazolin-2-yl)thiazol-4-yl)benzoic acid], for which the pEC50 in data set [3] is 7.49; in the data set on HBV DNA [5], 8.30; with HBV e antigen (HBeAg) it was 8.40. The same compound came in with a CC50 at 8 days in data set [4] greater than 50000 nM.

On to `CC1(C)N=C(c2ncc(-c3ccc(C(=O)O)cc3)cn2)Nc2c(Cl)cccc21` [Compound I-49, 4-(2-(8-chloro-4,4-dimethyl-1,4-dihydroquinazolin-2-yl)pyrimidin-5-yl)benzoic acid], for which the pEC50 is less than 4.30 in data set [3], 4.96 in the data set with HBV DNA [5] and 4.38 with HBV e antigen (HBeAg). For the same compound, the CC50 at 8 days in data set [4] is greater than 50000 nM.

For the compound `CC1(C)N=C(c2ccc(-c3ccc(C(=O)O)cc3)cc2F)Nc2c(Cl)cccc21` [Compound I-46, 4′-(8-chloro-4,4-dimethyl-1,4-dihydroquinazolin-2-yl)-3′-fluoro-[1.1′-biphenyl]-4-carboxylic acid], the pEC50 is less than 4.30 in data set [3], 4.31 with HBV DNA [5] and 5.20 in the data set on HBV e antigen (HBeAg). Further, the CC50 at 8 days in data set [4] is greater than 50000 nM.

Regarding `O=C(O)C1CCN(c2ccc3c(=O)c4cccc(Cl)c4oc3c2)C1` (centres unmarked) [A, reference compound], the pEC50 in data set [3] was 5.00; with HBV DNA [5], 6.24; in the data set on HBV e antigen (HBeAg), 5.16. The compound further came in with a CC50 at 8 days in data set [4] greater than 50000 nM.

Turning to `CC1(C)N=C(c2nc(-c3cccc(C(=O)O)c3)cs2)Nc2c(Cl)cccc21` [Compound I-36, 3-(2-(8-chloro-4,4-dimethyl-1,4-dihydroquinazolin-2-yl)thiazol-4-yl)benzoic acid], the results for the pEC50 (in data set [3]; with HBV DNA [5]; in the data set on HBV e antigen (HBeAg)) were less than 4.30, 5.00 and less than 4.30, respectively. The compound further displayed a CC50 at 8 days in data set [4] greater than 50000 nM.

Take `CC1(C)N=C(c2nc(-c3ccc(C(=O)O)cc3)cs2)Nc2c(F)cc(F)cc21` [Compound I-70, 4-(2-(6,8-difluoro-4,4-dimethyl-1,4-dihydroquinazolin-2-yl)thiazol-4-yl)benzoic acid]: the pEC50 in data set [3] was 7.39; in the data set on HBV DNA [5] it was 8.15; with HBV e antigen (HBeAg) it was 8.28. Moreover, the CC50 at 8 days in data set [4] is greater than 50000 nM.
